Test results as given in patent US6355799B1, “Substituted benzene compounds, process for their preparation, and herbicidal and defoliant compositions containing them” (ISK Americas Incorporated, priority 1997, dated 2002).

Legend:
Format in all cases: in vivo
[1] = system: velvetleaf (Abutilon theophrasti, ABUTH); test: Post-emerge test, greenhouse herbicide activity screening; details: post-emerge, phytotoxicity rating 0-100 at 14 days after application
Outline: (§1)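 Herbicidal damage is scored 0 (none) to 100 (complete plant death) two weeks after a simulated field spray. Rates span 15–1000 g ai/ha, delivered in acetone at 187 l/ha. For post-emergence treatments, plants have 2–3 leaves and the spray carries 0.25% v/v non-ionic surfactant.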

[2] = system: ivyleaf morningglory (Ipomoea hederacea, IPOHE); test: as above; details: post-emerge, phytotoxicity rating 0-100 at 14 days after application
Outline: as §1

[3] = system: lambsquarters (Chenopodium album, CHEAL); test: as above; details: post-emerge, phytotoxicity rating 0-100 at 14 days after application
Outline: as §1

[4] = system: large crabgrass (Digitaria sanguinalis, DIGSA); test: as above; details: post-emerge, phytotoxicity rating 0-100 at 14 days after application
Outline: as §1

[5] = system: johnsongrass (Sorghum halepense, SORHA); test: as above; details: post-emerge, phytotoxicity rating 0-100 at 14 days after application
Outline: as §1

[6] = system: barnyardgrass (Echinochloa crus-galli, ECHCG); test: as above; details: post-emerge, phytotoxicity rating 0-100 at 14 days after application
Outline: as §1

[7] = system: sicklepod (Cassia obtusifolia, CASOB); test: as above; details: post-emerge, phytotoxicity rating 0-100 at 14 days after application
Outline: as §1

[8] = system: green foxtail (Setaria viridis, SETVI); test: as above; details: post-emerge, phytotoxicity rating 0-100 at 14 days after application
Outline: as §1

[9] = system: redroot pigweed (Amaranthus retroflexus, AMARE); test: as above; details: post-emerge, phytotoxicity rating 0-100 at 14 days after application
Outline: as §1

[10] = system: redroot pigweed (Amaranthus retroflexus, AMARE); test: Pre-emerge test, greenhouse herbicide activity screening; details: rating scale 0-100, 14 days after application
Outline: (§2)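 Visual ratings on a 0-100 scale (0 no damage, 100 all plants dead) were taken at 14 days after treatment. Rates of 15-1000 g ai/ha in acetone, 187 l/ha, were sprayed onto soil one day after planting (pre-emerge) or onto 2-3 leaf plants with 0.25% v/v surfactant (post-emerge).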

[11] = system: upland rice (Oryza sp., var. Tebonnet, RICE); test: Pre-emerge test, crop safety; details: rating scale 0-100, 14 days after application
Outline: as §2

[12] = system: field corn (Zea mays L., var. Dekalb 535, CORN); test: Pre-emerge test, crop safety; details: rating scale 0-100, 14 days after application
Outline: as §2

[13] = system: velvetleaf (Abutilon theophrasti, ABUTH); test: Pre-emerge test, greenhouse herbicide activity screening; details: rating scale 0-100, 14 days after application
Outline: (§3)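 Compounds in acetone were track-sprayed at 15–1000 g ai/ha: pre-emergence onto soil sown the previous day, then top-watered to incorporate and later bottom-watered; post-emergence onto 2–3 leaf plants with 0.25% v/v surfactant, bottom-watered only. Ratings on a 0–100 phytotoxicity scale were taken at day 14.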

[14] = system: ivyleaf morningglory (Ipomoea hederacea, IPOHE); test: as above; details: rating scale 0-100, 14 days after application
Outline: as §3

[15] = system: lambsquarters (Chenopodium album, CHEAL); test: as above; details: rating scale 0-100, 14 days after application
Outline: as §3

[16] = system: large crabgrass (Digitaria sanguinalis, DIGSA); test: as above; details: rating scale 0-100, 14 days after application
Outline: as §3

[17] = system: johnsongrass (Sorghum halepense, SORHA); test: as above; details: rating scale 0-100, 14 days after application
Outline: as §3

[18] = system: barnyardgrass (Echinochloa crus-galli, ECHCG); test: as above; details: rating scale 0-100, 14 days after application
Outline: as §3

[19] = system: sicklepod (Cassia obtusifolia, CASOB); test: as above; details: rating scale 0-100, 14 days after application
Outline: as §3

[20] = system: green foxtail (Setaria viridis, SETVI); test: as above; details: rating scale 0-100, 14 days after application
Outline: as §3

[21] = system: upland rice (Oryza sp., var. Tebonnet, RICE); test: Post-emerge test, crop safety; details: post-emerge, crop damage rating 0-100 at 14 days after application
Outline: (§4)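 Rating: 0–100 visual injury, 14 DAA. Application: acetone, 187 l/ha, 15–1000 g ai/ha, flat-fan track sprayer with nozzle 40–45 cm above soil or canopy. Post-emerge runs used 0.25% v/v surfactant on 2–3 leaf plants.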

[22] = system: field corn (Zea mays L., var. Dekalb 535, CORN); test: Post-emerge test, crop safety; details: post-emerge, crop damage rating 0-100 at 14 days after application
Outline: as §4

Nc1c(O)c(Cl)cc(F)c1N1C(=O)C2CCCCN2C1=S (single isomer, unassigned) [12-3]
20: Post-emerge Herbicidal Activity CASOB ([7]; 63 g ai/ha) | Pre-emerge phytotoxicity rating, crop damage RICE ([11]; 250 g ai/ha)
90: Post-emerge Herbicidal Activity ABUTH ([1]; 63 g ai/ha) | Post-emerge Herbicidal Activity ABUTH ([1]; 250 g ai/ha) | Post-emerge Herbicidal Activity IPOHE ([2]; 250 g ai/ha) | Post-emerge Herbicidal Activity CHEAL ([3]; 63 g ai/ha) | Pre-emerge herbicidal activity, phytotoxicity rating IPOHE ([14]; 250 g ai/ha)
100: Post-emerge Herbicidal Activity CHEAL ([3]; 250 g ai/ha) | Pre-emerge herbicidal activity, phytotoxicity rating AMARE ([10]; 250 g ai/ha) | Pre-emerge herbicidal activity, phytotoxicity rating ABUTH ([13]; 63 g ai/ha) | Pre-emerge herbicidal activity, phytotoxicity rating ABUTH ([13]; 250 g ai/ha) | Pre-emerge herbicidal activity, phytotoxicity rating CHEAL ([15]; 63 g ai/ha) | Pre-emerge herbicidal activity, phytotoxicity rating CHEAL ([15]; 250 g ai/ha)
10: Post-emerge Herbicidal Activity ECHCG ([6]; 250 g ai/ha) | Pre-emerge phytotoxicity rating, crop damage RICE ([11]; 63 g ai/ha) | Post-emerge Herbicidal Activity CORN ([22]; 250 g ai/ha)
80: Post-emerge Herbicidal Activity CASOB ([7]; 250 g ai/ha)
30: Pre-emerge herbicidal activity, phytotoxicity rating DIGSA ([16]; 250 g ai/ha) | Pre-emerge herbicidal activity, phytotoxicity rating CASOB ([19]; 63 g ai/ha) | Pre-emerge herbicidal activity, phytotoxicity rating SETVI ([20]; 250 g ai/ha)
99: Post-emerge Herbicidal Activity AMARE ([9]; 250 g ai/ha)
5: Post-emerge Herbicidal Activity RICE ([21]; 250 g ai/ha) | Post-emerge Herbicidal Activity CORN ([22]; 63 g ai/ha)
70: Pre-emerge herbicidal activity, phytotoxicity rating CASOB ([19]; 250 g ai/ha)
50: Post-emerge Herbicidal Activity IPOHE ([2]; 63 g ai/ha) | Post-emerge Herbicidal Activity SORHA ([5]; 250 g ai/ha)
0: Post-emerge Herbicidal Activity DIGSA ([4]; 63 g ai/ha) | Post-emerge Herbicidal Activity DIGSA ([4]; 250 g ai/ha) | Post-emerge Herbicidal Activity SORHA ([5]; 63 g ai/ha) | Post-emerge Herbicidal Activity ECHCG ([6]; 63 g ai/ha) | Post-emerge Herbicidal Activity SETVI ([8]; 63 g ai/ha) | Post-emerge Herbicidal Activity SETVI ([8]; 250 g ai/ha) | Pre-emerge phytotoxicity rating, crop damage CORN ([12]; 63 g ai/ha) | Pre-emerge phytotoxicity rating, crop damage CORN ([12]; 250 g ai/ha) | Pre-emerge herbicidal activity, phytotoxicity rating IPOHE ([14]; 63 g ai/ha) | Pre-emerge herbicidal activity, phytotoxicity rating DIGSA ([16]; 63 g ai/ha) | Pre-emerge herbicidal activity, phytotoxicity rating SORHA ([17]; 63 g ai/ha) | Pre-emerge herbicidal activity, phytotoxicity rating SORHA ([17]; 250 g ai/ha) | Pre-emerge herbicidal activity, phytotoxicity rating ECHCG ([18]; 63 g ai/ha) | Pre-emerge herbicidal activity, phytotoxicity rating ECHCG ([18]; 250 g ai/ha) | Pre-emerge herbicidal activity, phytotoxicity rating SETVI ([20]; 63 g ai/ha) | Post-emerge Herbicidal Activity RICE ([21]; 63 g ai/ha)
95: Post-emerge Herbicidal Activity AMARE ([9]; 63 g ai/ha) | Pre-emerge herbicidal activity, phytotoxicity rating AMARE ([10]; 63 g ai/ha)
